Experimental data taken from patent US11040976B2, “Substrate selective inhibitors of insulin-degrading enzyme (IDE) and uses thereof” (President and Fellows of Harvard College, priority 2015, dated 2021).

Molecular target: T1, recombinant human IDE42-1019 (Homo sapiens, UniProt P14735)
T1 construct: recombinant human IDE42-1019 (R&D Systems); purchased R&D Systems
T1 sequence (P14735 42-1019): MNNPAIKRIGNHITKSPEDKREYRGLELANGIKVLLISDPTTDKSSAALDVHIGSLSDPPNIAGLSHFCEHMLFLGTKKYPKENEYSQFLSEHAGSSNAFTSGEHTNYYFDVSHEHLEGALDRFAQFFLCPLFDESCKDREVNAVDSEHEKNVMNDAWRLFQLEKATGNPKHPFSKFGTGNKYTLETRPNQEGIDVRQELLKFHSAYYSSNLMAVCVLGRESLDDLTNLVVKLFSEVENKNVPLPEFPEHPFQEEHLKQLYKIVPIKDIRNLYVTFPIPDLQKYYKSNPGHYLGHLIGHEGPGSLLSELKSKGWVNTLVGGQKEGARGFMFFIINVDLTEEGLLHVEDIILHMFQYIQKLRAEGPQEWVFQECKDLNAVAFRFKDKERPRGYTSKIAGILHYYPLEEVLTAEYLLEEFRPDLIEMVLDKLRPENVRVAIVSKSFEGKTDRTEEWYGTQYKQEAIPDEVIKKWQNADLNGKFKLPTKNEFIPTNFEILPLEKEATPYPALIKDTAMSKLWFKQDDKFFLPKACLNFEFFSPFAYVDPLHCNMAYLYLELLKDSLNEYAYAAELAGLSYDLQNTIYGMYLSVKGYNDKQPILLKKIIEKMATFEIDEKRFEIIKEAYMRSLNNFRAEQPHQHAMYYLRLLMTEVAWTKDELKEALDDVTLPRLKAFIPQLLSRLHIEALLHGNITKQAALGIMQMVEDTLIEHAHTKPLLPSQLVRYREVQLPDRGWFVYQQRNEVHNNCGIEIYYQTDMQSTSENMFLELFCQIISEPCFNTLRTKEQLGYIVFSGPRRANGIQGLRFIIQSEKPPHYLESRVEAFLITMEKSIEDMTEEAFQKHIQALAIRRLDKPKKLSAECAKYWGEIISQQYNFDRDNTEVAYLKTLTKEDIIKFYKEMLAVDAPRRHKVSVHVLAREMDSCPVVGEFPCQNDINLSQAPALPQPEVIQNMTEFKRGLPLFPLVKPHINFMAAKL
Experiment: Protease assay with fluorogenic peptide substrate Mca-[…](Dnp)-OH
Type: biochemical
Details: fluorogenic peptide Mca-RPPGFSAFK(Dnp)-OH; for IC50: apparent IC50 for compounds with submaximal inhibition, read-out: IC50 (μM) Proteolysis; for Emax: plateau at high inhibitor concentration, read-out: Imax (%) Proteolysis (inhibition maximum)
Method: The proteases IDE42-1019, recombinant human IDE42-1019 (R&D Systems), neprilysin (R&D), and angiotensin-converting enzyme (R&D) were assayed using the fluorophore/quencher-tagged peptide substrate Mca-[…](Dnp)-OH (SEQ ID NO: 24) (R&D) according to the manufacturer's instructions and using the recommended buffers (fluorophore Mca=(7-methoxycourmarin-4-yl)acetyl and quencher Dnp=2,4-dinitrophenyl). For IDE the recommended buffer is 50 mM Tris pH 7.5, 1 M NaCl. The enzyme mixtures (48 μL) were transferred to a 96-well plate and combined with 2 μL of inhibitor in DMSO solutions, in 3-fold dilution series. The mixtures were allowed to equilibrate for 10 minutes and the enzymatic reaction was started by addition of substrate peptide in assay buffer (50 μL), mixed, and monitored on a fluorescence plate reader (excitation at 320 nm, emission at 405 nm). Similarly, thimet oligopeptidase (R&D) and neurolysin (R&D) were assayed using substrate Mca-PLGPK(Dnp)-OH (SEQ ID NO: 25) (R&D) according to the manufacturer's instructions and using the recommended buffers. Matrix metalloproteinase-1 (R&D) was activated and assayed according to the manufacturer's instructions with substrate Mca-KPLGL-Dpa-AR-NH2 (SEQ ID NO: 20) (R&D) (quencher DPA=N-3-(2,4,dinitrophenyl)-L-2,3-diaminopropionyl). All assay data points were obtained in duplicate.

Row | Compound | IC50 | Emax
1 | Cc1cc2c(cc1S(=O)(=O)N1CCCCN3[C@H](CO)[C@@H](c4ccc(-c5cccc(C)c5C)cc4)[C@@H]3C1)OCC(=O)N2 [JP-S13] | 0.1 µM | 
2 | Cc1ccccc1-c1ccc([C@@H]2[C@H](CO)N3CCCCN(C(=O)Cc4ccccn4)C[C@@H]23)cc1 [compound 469] |  | 80%
3 | O=C(NC1CCCC1)N1CCCCN2[C@@H](CO)[C@H](c3ccc(/C=C/c4ccccc4)cc3)[C@@H]2C1 [compound 900] | > 7.5 µM | 
4 | Cc1cccc(-c2ccc(C3CCN(S(=O)(=O)c4cc5ccccc5o4)CC3)cc2)c1C [A03] | > 100 µM | 
5 | COC[C@@H]1[C@@H](c2ccc(-c3cccc(C)c3C)cc2)[C@@H]2CN(S(=O)(=O)c3ccnn3C(C)C)CCCCN12 [JP-S10-OMe] | > 0.2 µM | 
6 | Cc1cccc(-c2ccc([C@@H]3[C@@H](CO)N4CCCCN(C(=O)c5ccc6c(c5)OCO6)C[C@@H]34)cc2)c1 [compound 291] | > 200 µM | 
7 | COc1cccc(-c2ccc([C@@H]3[C@@H](CO)N4CCCCN(CC5CCOCC5)C[C@@H]34)cc2)c1 [compound 644] | > 100 µM | 
8 | Cc1cccc(-c2ccc(C3CCN(S(=O)(=O)c4cccc(C(=O)N(C)C)c4)CC3)cc2)c1C [A06] | 1 µM | 
9 | Cc1cc2c(cc1S(=O)(=O)N1CCC(c3ccc(-c4cccc(C)c4C)cc3)CC1)OCC(=O)N2 [A13] | 10 µM | 
10 | COC(=O)c1ccc(S(=O)(=O)N2CCCCN3C(C2)[C@H](c2ccc(-c4cccc(C)c4C)cc2)[C@H]3CO)n1C (stereo partly drawn) [JP-S27] | > 5 µM | 
11 | Cc1cccc(-c2ccc(C3CCN(S(=O)(=O)CCc4ccncc4)CC3)cc2)c1C [A17] | 5 µM | 
12 | Cc1cccc(-c2ccc(C3CCN(S(=O)(=O)c4ccc5[nH]c(=O)[nH]c5c4)CC3)cc2)c1C [A15] | 4 µM | 
13 | Cc1cccc(-c2ccc(C3CCN(Cc4ccc(Oc5ccccc5)cc4)CC3)cc2)c1C [A31] | 12 µM | 
14 | Cc1cccc(-c2ccc(C3CCN(Cc4ccc(F)c5ccccc45)CC3)cc2)c1C [A35] | 12 µM | 
15 | Cc1cccc(-c2ccc([C@H]3C4CN(S(=O)(=O)c5cn(C)nc5C(F)(F)F)C/C=C\CN4[C@@H]3CO)cc2)c1C (stereo partly drawn) [JP-S20] | 0.03 µM | 
16 | COC[C@@H]1[C@@H](c2ccc(-c3cccc(C)c3C)cc2)[C@@H]2CN(S(=O)(=O)c3ccc[n+](C)c3C)CCCCN12 [JP-S21-diMe] | > 0.2 µM | 
17 | Cc1ccccc1S(=O)(=O)N1CCCCN2[C@H](CO)[C@@H](c3ccc(-c4cccc(O)c4)cc3)[C@@H]2C1 [B7] | 7.5 µM | 100%
18 | Cc1cccc(-c2ccc([C@@H]3[C@@H](CO)N4CCCCN(S(=O)(=O)c5nccn5C)C[C@@H]34)cc2)c1C [JP-S23] | 0.0006 µM | 
19 | Cc1cccc(-c2ccc(C3CCN(Cc4ccc5ccccc5n4)CC3)cc2)c1C [A39] | 12 µM | 

Row | Compound | IC50 | Emax
20 | Cc1ccccc1S(=O)(=O)N1CCCCN2[C@H](CO)[C@@H](c3ccc(-c4cccc(C(F)(F)F)c4)cc3)[C@@H]2C1 [B5] | 7.5 µM | 
21 | CCCNC(=O)N1CC(=O)N2[C@@H](CO)[C@H](c3ccc(-c4cccc(C)c4)cc3)[C@@H]2C1 [compound 231] | 2.5 µM | 60%
22 | Cc1cccc(-c2ccc([C@@H]3[C@@H](CO)N4CCCCN(S(=O)(=O)N5CCN(C)CC5)C[C@@H]34)cc2)c1C [JP-S22] | 0.03 µM | 
23 | COC[C@@H]1[C@@H](c2ccc(-c3cccc(C)c3C)cc2)C2CN(S(=O)(=O)c3cnc(C)n3C)C/C=C\CN21 (stereo partly drawn) [JP-S18-OMe] | 0.02 µM | 
24 | Cc1cccc(-c2ccc(C3CCN(Cc4cccc(Oc5ccccc5)c4)CC3)cc2)c1C [A32] | 12 µM | 
25 | Cc1cccc(-c2ccc(C3CCN(C(=O)c4cccc(OCc5ccccc5)c4)CC3)cc2)c1C [A22] | 1 µM | 
26 | CCC(=O)N1[C@H](CO)[C@H](c2ccc(-c3ccccc3OC)cc2)[C@H]1CNC(C)=O [D4] | > 20 µM | 
27 | CNC[C@@H]1[C@@H](c2ccc(-c3cccc(C)c3C)cc2)[C@@H]2CN(S(=O)(=O)c3ccccc3C(F)(F)F)CCCCN12 [JP-17-NHMe] | 0.007 µM | 
28 | COC[C@@H]1[C@@H](c2ccc(-c3cccc(C)c3C)cc2)[C@@H]2CN(S(=O)(=O)c3ccccc3C(F)(F)F)CCCCN12 [JP-17-OMe] | 0.05 µM | 
29 | COc1cc(N)ccc1S(=O)(=O)N1CCCCN2[C@H](CO)[C@@H](c3ccc(-c4cccc(C)c4C)cc3)[C@@H]2C1 [JP-S5] | 0.5 µM | 
30 | Cc1cccc(-c2ccc(C3CCN(S(=O)(=O)c4ccc5c(c4)OCO5)CC3)cc2)c1C [A02] | 12 µM | 
31 | Cc1cccc(-c2ccc(C3CCN(S(=O)(=O)N4CC(C)OC(C)C4)CC3)cc2)c1C (stereo not drawn) [A19] | 4 µM | 
32 | Cc1cccc(-c2ccc([C@H]3C4CN(S(=O)(=O)c5cccnc5C)C/C=C\CN4[C@@H]3CO)cc2)c1C (stereo partly drawn) [JP-S21] | 0.02 µM | 
33 | Cc1ccccc1S(=O)(=O)N1CCCCN2[C@H](CO)[C@@H](c3ccc(-c4cccc(F)c4)cc3)[C@@H]2C1 [B10] |  | 65%
34 | Cc1ccc(C)c(-c2ccc([C@@H]3[C@@H](CO)N4CCCCN(S(=O)(=O)c5ccccc5C)C[C@@H]34)cc2)c1 [B12] |  | 65%
35 | Cc1cc(C)cc(-c2ccc([C@@H]3[C@@H](CO)N4CCCCN(S(=O)(=O)c5ccccc5C)C[C@@H]34)cc2)c1 [B9] |  | 72%
36 | Cc1cc(S(=O)(=O)N2CCCCN3[C@H](CO)[C@@H](c4ccc(-c5cccc(C)c5C)cc4)[C@@H]3C2)n(C)n1 [JP-S25] | 0.02 µM | 
37 | COC[C@H]1[C@H](c2ccc(C#Cc3ccccc3F)cc2)[C@@H]2CN(C(=O)NC(C)C)CCCCN12 [compound 304] | 2 µM | 80%
38 | Cc1ccccc1S(=O)(=O)N1CCCCN2[C@H](CO)[C@@H](c3ccc(-c4ccccc4)cc3)[C@@H]2C1 [B6] | 1 µM | 65%

More lines, now with the values ahead:

Row | IC50 | Emax | Compound
39 |  | 72% | Cc1cc(C)cc(-c2ccc([C@H]3C4CN(S(=O)(=O)c5ccccc5C)CCCCN4[C@@H]3CO)cc2)c1 (stereo partly drawn) [K10]
40 | 0.06 µM |  | Cc1c(Cl)cccc1-c1ccc([C@H]2C3CN(S(=O)(=O)c4ccccc4C(F)(F)F)C/C=C\CN3[C@@H]2CF)cc1 (stereo partly drawn) [JP-38]
41 | 2.5 µM |  | Cc1cccc(-c2ccc(N3CCN(C(=O)CC4CCCCC4)CC3)cc2)c1C [J16]
42 | 1 µM |  | Cc1ccccc1S(=O)(=O)N1CCN(c2ccc(-c3cccc(C)c3C)cc2)CC1 [J1]
43 | 3 µM |  | Cc1cc(O)ccc1-c1ccc([C@@H]2[C@@H](CO)N3CCCCN(S(=O)(=O)c4ccccc4C)C[C@@H]23)cc1 [JP-31]
44 | 0.03 µM |  | Cc1c(F)ccc(-c2ccc([C@@H]3[C@@H](CO)N4CCCCN(S(=O)(=O)c5ccccc5C(F)(F)F)C[C@@H]34)cc2)c1C [JP-41]
45 | 0.09 µM |  | Cc1ccc(C)c(-c2ccc([C@@H]3[C@@H](CO)N4CCCCN(S(=O)(=O)c5ccccc5C)C[C@@H]34)cc2)c1 [K13]
46 | 0.3 µM |  | Cc1ccccc1S(=O)(=O)N1CCCCN2[C@H](CO)[C@@H](c3ccc(-c4ccc(F)c(F)c4C)cc3)[C@@H]2C1 [K24]
47 | 0.3 µM |  | Cc1ccccc1S(=O)(=O)N1CCCCN2[C@H](CO)[C@@H](c3ccc(-c4cccc(F)c4C(F)(F)F)cc3)[C@@H]2C1 [K23]
48 | 0.25 µM |  | Cc1cccc(-c2ccc([C@H]3C4CN(S(=O)(=O)c5ccccc5C)CCCCN4[C@@H]3CN)cc2)c1 (stereo partly drawn) [K29]
49 | > 100 µM |  | Cc1ccccc1S(=O)(=O)N1CCCCN2[C@H](CO)[C@@H](c3ccccc3)[C@@H]2C1 [K2]
50 | 0.1 µM |  | Cc1cc(C)cc(-c2ccc([C@@H]3[C@@H](CO)N4CCCCN(S(=O)(=O)c5ccccc5C)C[C@@H]34)cc2)c1 [K10]
51 | 0.002 µM |  | Cc1ccccc1S(=O)(=O)N1CCCCN2[C@H](CO)[C@@H](c3ccc(-c4cccc(C)c4C)cc3)[C@@H]2C1 [K9]
52 | 2.5 µM |  | Cc1ccccc1S(=O)(=O)N1CCC(O)(c2ccc(-c3cccc(C)c3C)cc2)CC1 [J2]
53 | 0.2 µM |  | Cc1cccc(-c2ccc(C3CCN(C(=O)c4ccc5nccnc5c4)CC3)cc2)c1C [J17]
